Values joined by “and” are separate entries in the source; they are usually repeats but may differ in a detail not shown here. Identical values can stand only once.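 Where inhibition never reached the appropriate level, the endpoint shown equals the highest concentration tested. Otherwise, values were interpolated linearly from a five-concentration, 48-hour dose response in 96-well plates. GI50 marks 50% less growth. TGI is the concentration that stops growth completely.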 Where a SMILES comes first, the peptide text is derived from it. The star is where a group is joined. Boc = CC(C)(C)OC(=O)* A value given as a limit tells only on which side of the number the result lay.

35 compounds from PubChem BioAssay (NCI) can be followed below.

Test systems include MDA-N; DMS 273 small cell lung; HOP-18 NSCLC; KM20L2 colon; M19-MEL melanoma; SNB-78 CNS; P388 leukemia; P388/ADR leukemia; SN12K1 renal; RXF-631 renal.
Assay in all cases: NCI tumour cell line growth inhibition, 48 h

For the compound `COC(=O)c1cc2c(s1)-c1nccc3c1c(nc1ccccc13)C2=O`, in the experiment on MDA-N, the GI50 was 32.9 µM and the TGI is more than 100 µM.

As to `COc1cc2c3c(c1OC)-c1cc4c(cc1CC3(C#N)N(C(=O)c1ccccc1)CC2)OCO4` (stereo not drawn), the TGI with DMS 273 small cell lung is more than 79.4 µM; in the experiment on HOP-18 NSCLC it was 93.2 µM; in the experiment with KM20L2 colon, more than 100 µM; in the experiment with M19-MEL melanoma, more than 100 µM; with MDA-N, more than 100 µM; with SNB-78 CNS, 42.6 µM.

Turning to `COC12C(COC(N)=O)C3=C(C(=O)C(C)=C(N)C3=O)N1CC1C2N1C` (stereo not drawn), the TGI was determined as 5.81 µM with DMS 273 small cell lung; 82.5 µM in the experiment with HOP-18 NSCLC; 52.3 µM in the experiment with KM20L2 colon; 24.7 µM in the experiment with M19-MEL melanoma; 35.3 µM in the experiment with MDA-N; 75.2 µM with P388 leukemia. In addition, the results for the TGI in the experiment with P388/ADR leukemia, in the experiment with SN12K1 renal and in the experiment on SNB-78 CNS were 263 µM, 19.9 µM and 51.1 µM, respectively.

Consider `O=C(CNS(=O)(=O)Cc1ccccc1)NNc1ccccc1`, for which the TGI in the experiment on MDA-N was more than 100 µM.

In the case of `COc1ccc(C2=C(c3ccc(OC)cc3)C(=O)N3CCCC3C2)cc1` (stereo not drawn), in the experiment on MDA-N, the GI50 is 12.2 µM and the TGI was more than 100 µM.

Regarding `[N-]=[N+]=N/C1=C/CCCCC(=O)C1`, the TGI in the experiment with DMS 273 small cell lung, in the experiment with KM20L2 colon, with M19-MEL melanoma and in the experiment on SNB-78 CNS was more than 100 µM each time.

As to `C=CCN1CCC23c4c5ccc(O)c4OC2C(=NN=C2CCC4(O)C6Cc7ccc(O)c8c7C4(CCN6CC=C)C2O8)CCC3(O)C1C5` (stereo not drawn), the TGI was 37.7 µM in the experiment on DMS 273 small cell lung; more than 100 µM with HOP-18 NSCLC; 47.8 µM in the experiment on KM20L2 colon; 50.2 µM with RXF-631 renal; 68 µM with SNB-78 CNS.

As for `Cc1ccc(S(=O)OCc2c(C)c(C)c(COS(=O)c3ccc(C)cc3)c(C)c2C)cc1` (stereo not drawn), the TGI with DMS 273 small cell lung, in the experiment on HOP-18 NSCLC, in the experiment with KM20L2 colon, in the experiment with M19-MEL melanoma and in the experiment with SNB-78 CNS was more than 100 µM throughout.

Take `CCN(CC)CCSc1c2ccccc2nc2c(OC)ccc(OC)c12`: the TGI was 25 µM with DMS 273 small cell lung; more than 21.1 µM with KM20L2 colon; 38.2 µM in the experiment with M19-MEL melanoma; 17.9 µM in the experiment with RXF-631 renal; 22.3 µM in the experiment on SNB-78 CNS.

Turning to `CN(C)c1ncnc2c1ncn2CCn1cnc2c(N(C)C)ncnc21`, the TGI in the experiment with MDA-N was more than 100 µM.

Compound `Cc1cc2cc3c(=O)[nH]c(=O)[nH]c3nc2cc1C` gave a TGI in the experiment on MDA-N of more than 100 µM.

Turning to `C=COC(=O)N[C@H]1CCc2cc(OC)c(OC)c(OC)c2-c2ccc(SC)c(=O)cc21`, the TGI was more than 100 µM in the experiment with DMS 273 small cell lung; more than 100 µM in the experiment on HOP-18 NSCLC; less than 0.01 µM in the experiment with KM20L2 colon; more than 100 µM in the experiment on M19-MEL melanoma; less than 0.01 µM with MDA-N; more than 100 µM with SNB-78 CNS.

`O=c1[nH]c2ccc(O)cc2o1` showed a TGI with MDA-N of more than 100 µM.

For `C[Si](C)(C)/C(Br)=C\CCN1C(=O)CCC1=O`, the TGI with DMS 273 small cell lung, with HOP-18 NSCLC, in the experiment with KM20L2 colon, in the experiment with M19-MEL melanoma, in the experiment with RXF-631 renal and in the experiment on SNB-78 CNS was more than 100 µM throughout.

For the compound `O=C1CCC(=O)c2c1c(O)c1ccncc1c2O`, the TGI with DMS 273 small cell lung amounted to 37.7 µM; with HOP-18 NSCLC, 60.5 µM; in the experiment with KM20L2 colon, 49.8 µM; with RXF-631 renal, 54.8 µM; in the experiment on SNB-78 CNS it was 38.4 µM.

With `COC(=O)C(C)NC(=O)C(CCSC)NC(=O)C(Cc1ccccc1)NC(=O)OC(C)(C)C` (stereo not drawn) (Boc-Phe-Met-Ala-OMe; configuration not given here), in the experiment with MDA-N, the GI50 was 48.9 µg/mL and the TGI is more than 100 µM.

On to `C[Si](C)(C)/C(I)=C/CO`, for which the TGI was 48.9 µM with DMS 273 small cell lung; 64.1 µM in the experiment on HOP-18 NSCLC; 55.9 µM with KM20L2 colon; 53.1 µM in the experiment with M19-MEL melanoma; 83.8 µM in the experiment on RXF-631 renal; 95.3 µM with SNB-78 CNS.

Consider `CC(C)(C)[Si](C)(C)OC1C(=O)C[C@H]2CCCC[C@@H]12` (stereo partly drawn), for which the TGI with DMS 273 small cell lung, in the experiment on HOP-18 NSCLC, with KM20L2 colon, in the experiment on M19-MEL melanoma and in the experiment on SNB-78 CNS was more than 100 µM in each case.

Regarding `CN(C)CCSc1cc(-c2ccccc2)c2ccccc2n1`, the TGI in the experiment on MDA-N was determined as 22.7 µM.

On to `COC(=O)C1=C(C(=O)OC)C2=S(SC3=C2CCCC3)S1` (stereo not drawn), for which the TGI was 34.2 µM with DMS 273 small cell lung, 76.5 µM in the experiment with KM20L2 colon and more than 100 µM with M19-MEL melanoma.

For `COc1ccc2c(c1)c[n+](C)c1c3cc(OC)c(OC)cc3ccc21`, the TGI in the experiment on DMS 273 small cell lung was 3.54 µM; in the experiment with HOP-18 NSCLC it was 29.4 µM; with KM20L2 colon, 17.8 µM; in the experiment on M19-MEL melanoma it was 15.8 µM; in the experiment on MDA-N, 3.08 µM and 8.07 µM; in the experiment on SNB-78 CNS, 22.4 µM.

In the case of `CC1(Br)Cc2ccccc2C1=O` (stereo not drawn), in the experiment on MDA-N, the GI50 is 4.45 µM and the TGI turned out to be 18.2 µM.

The compound `O=C(/C=C/C=C/c1ccccc1)c1ccccc1` yielded a TGI with MDA-N of 30.4 µM.

`CN(C)CCNC(=O)c1cccc2c(Nc3ccc(S(=O)(=O)N=C(N)N)cc3)c3ccccc3nc12`: the TGI in the experiment with DMS 273 small cell lung is 24.2 µM; with KM20L2 colon, more than 100 µM; with M19-MEL melanoma, 59.9 µM.

Consider `CCc1c(Cl)c(C)cc(O)c1Cl`, for which, in the experiment with MDA-N, the TGI amounted to 41.3 µM.

On to `C=C1C(=O)OC2CC(C)C(C(O)CC(C)O)=CCC12` (stereo not drawn), for which, in the experiment with MDA-N, the TGI was 42.3 µM.

For the compound `O=[N+]([O-])c1ccc(-c2cnc3ccccn23)cc1`, the TGI in the experiment with DMS 273 small cell lung, with KM20L2 colon, with M19-MEL melanoma and with SNB-78 CNS was more than 100 µM in each case.

For the compound `Nc1ccn(C2OC(CO)C(O)C2O)c(=O)n1` (stereo not drawn), the TGI with DMS 273 small cell lung is 344 µM; in the experiment on HOP-18 NSCLC it was 250 µM; in the experiment on KM20L2 colon, more than 482 µM; in the experiment on M19-MEL melanoma, more than 500 µM; in the experiment with MDA-N, more than 500 µM; in the experiment with P388 leukemia it was 1.81 µM. Further, the TGI in the experiment on P388/ADR leukemia is 1.15 µM; in the experiment on SN12K1 renal it was more than 500 µM. Further, the GI50 in the experiment with HOP-18 NSCLC is 77.1 µM; in the experiment with M19-MEL melanoma, 15.6 µM.

In the case of `CC12CCC3c4ccc(O)cc4CCC3C1C/C(=N\O)C2O` (stereo not drawn), the TGI in the experiment with MDA-N was more than 100 µM.

Consider `Cn1cnnc1Sc1c([N+](=O)[O-])ncn1C`, for which the TGI in the experiment with DMS 273 small cell lung is more than 100 µM; in the experiment on HOP-18 NSCLC, 82.5 µM; in the experiment with RXF-631 renal, more than 100 µM; in the experiment on SNB-78 CNS, more than 100 µM.

With `C[C@]12CCC(=O)C=C1CC[C@@H]1C2CC[C@]2(C)Nc3[nH]ncc3CC12` (stereo partly drawn), the TGI with DMS 273 small cell lung, in the experiment on KM20L2 colon, in the experiment with M19-MEL melanoma and in the experiment with SNB-78 CNS was more than 100 µM throughout.

In the experiment on MDA-N, `CC(C)=CCc1cc2c(cc1O)OC[C@H]1c3cc4c(cc3O[C@@H]21)OCO4` gave a TGI of more than 100 µM.

`O=C(O)c1ccc(C(=O)O)c2c(C(=O)O)ccc(C(=O)O)c12` had a TGI in the experiment with MDA-N of more than 100 µM.

With `CS/C(=C(\S)c1ccccc1)c1ccccc1`, the TGI is more than 100 µM in the experiment with DMS 273 small cell lung; more than 100 µM in the experiment with HOP-18 NSCLC; more than 31.6 µM with KM20L2 colon; more than 100 µM in the experiment with M19-MEL melanoma; more than 100 µM with RXF-631 renal; more than 100 µM in the experiment with SNB-78 CNS.

For the compound `CSc1nc(NC2OC(COC(C)=O)C(OC(C)=O)C(OC(C)=O)C2OC(C)=O)c(N=CC=Nc2c(NC3OC(COC(C)=O)C(OC(C)=O)C(OC(C)=O)C3OC(C)=O)nc(SC)n(C)c2=O)c(=O)n1C` (stereo not drawn), the TGI with DMS 273 small cell lung, with HOP-18 NSCLC, with KM20L2 colon, in the experiment on M19-MEL melanoma, in the experiment on MDA-N and in the experiment with RXF-631 renal was more than 100 µM each time. The compound further displayed a TGI with SNB-78 CNS of more than 93.7 µM.
